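Protocol summary: plate cells (96-well), add compound at 5 concentrations, incubate 48 h, interpolate endpoints linearly. The concentration for full growth arrest is given as TGI.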
What was measured:
Assay in all cases: NCI anticancer screen, dose series, 48 h
A498 renal = test system: A498 renal
CAKI-1 renal = test system: CAKI-1 renal
CCRF-CEM leukemia = test system: CCRF-CEM leukemia
HCC-2998 colon = test system: HCC-2998 colon
HCT-116 colon = test system: HCT-116 colon
HL-60(TB) leukemia = test system: HL-60(TB) leukemia
NCI-H23 lung = test system: NCI-H23 lung
NCI-H522 lung = test system: NCI-H522 lung
OVCAR-3 ovarian = test system: OVCAR-3 ovarian
OVCAR-5 ovarian = test system: OVCAR-5 ovarian
SK-MEL-2 melanoma = test system: SK-MEL-2 melanoma
U251 CNS = test system: U251 CNS
UO-31 renal = test system: UO-31 renal
HS 578T breast = test system: HS 578T breast

Row | Structure (SMILES) | TGI (A498 renal) [µM] | TGI (CAKI-1 renal) [µM] | TGI (CCRF-CEM leukemia) [µM] | TGI (HCC-2998 colon) [µM] | TGI (HCT-116 colon) [µM] | TGI (HL-60(TB) leukemia) [µM] | TGI (NCI-H23 lung) [µM] | TGI (NCI-H522 lung) [µM] | TGI (OVCAR-3 ovarian) [µM] | TGI (OVCAR-5 ovarian) [µM] | TGI (SK-MEL-2 melanoma) [µM] | TGI (U251 CNS) [µM] | TGI (UO-31 renal) [µM] | TGI (HS 578T breast) [µM]
1 | NC(=O)c1csc(CCCCCCc2nc(C(N)=O)cs2)n1 | > 100 | > 100 | > 62.4 | > 100 | > 100 | > 100 | > 100 | > 100 | > 100 | > 100 | > 100 | > 65.1 | > 100 | –
2 | O=C(/C=C/c1c(O)ccc2ccccc12)c1cccc2ccccc12 | > 100 | > 100 | > 67.8 | > 100 | > 100 | > 63.7 | > 100 | > 100 | > 100 | > 100 | > 100 | > 100 | > 100 | –
3 | Cn1c(=O)c2c(nc(C[N+]3([O-])CCOCC3)n2C)n(C)c1=O | – | > 100 | > 100 | > 100 | > 100 | > 100 | > 100 | > 100 | > 100 | > 100 | > 100 | > 100 | > 100 | –
4 | COc1ccc(C2CCC(Cl)(OC)CC2C=O)cc1 (stereo not drawn) | > 100 | > 100 | > 100 | > 100 | > 100 | > 100 | > 100 | > 100 | > 100 | > 100 | > 100 | > 100 | > 100 | –
5 | C=C(C)[C@@H]1CC[C@@H](C)[C@](O)([C@@H]2C[C@@H]([C@H](COC(=O)c3ccccc3)OC(=O)c3ccccc3)OC2=O)C1 | > 100 | > 100 | > 100 | > 100 | > 100 | – | > 100 | > 100 | > 100 | > 100 | > 100 | > 100 | > 100 | –
6 | CCOC(=O)C1=C(O)c2ccccc2C(=O)C1=O | > 100 | > 100 | > 100 | > 100 | > 100 | > 100 | > 100 | > 100 | > 100 | > 100 | > 100 | > 100 | > 100 | –
7 | CC(=O)OC1OC2C(NC(=O)OC(C)(C)C)C1CC2(OCc1ccccc1)OCc1ccccc1 (stereo not drawn) | > 82.9 | > 100 | 82.9 | 40.7 | 31.6 | 35.2 | 41.7 | 30.5 | 38.5 | 82.4 | 38.9 | 32.4 | 30.3 | –
8 | O=C(O)c1cc(-c2ccccc2O)nc2ccccc12 | > 100 | > 100 | > 100 | > 100 | > 100 | – | > 100 | > 100 | > 100 | > 100 | > 100 | > 100 | > 100 | –
9 | COC(C/C(=C/CO[Si](C(C)C)(C(C)C)C(C)C)C(=O)Nc1ccccc1I)OC | > 100 | > 100 | > 100 | 40 | 39.8 | – | > 100 | 6.05 | 51.8 | 70 | 31.1 | > 100 | > 100 | > 100
10 | COC(=O)/C(C#N)=C1\NC(=O)CC(c2ccccc2)C1C#N (stereo not drawn) | – | > 100 | > 100 | > 100 | > 100 | > 100 | – | > 100 | > 100 | > 100 | > 100 | – | > 100 | > 100
11 | O=c1oc2cc(O)ccc2c(O)c1C(c1ccccn1)c1c(O)c2ccc(O)cc2oc1=O | > 100 | > 100 | > 100 | > 100 | > 100 | – | > 100 | > 100 | > 100 | > 100 | > 100 | > 100 | > 100 | > 100
12 | COc1cccc(/C(C=O)=C(\Cl)c2ccc(OC)c(OC)c2)c1 | – | 45.1 | 33.5 | 29.8 | 22.5 | 20.7 | 24.9 | 22.1 | 30.2 | 36.9 | 42.8 | 27.4 | 28.2 | –
13 | CCOc1ccc(N/C(=C(/C(Cl)=C(/Cl)NCCO)[N+](=O)[O-])n2nnc3ccccc32)cc1 | > 100 | 27.8 | > 100 | > 100 | > 100 | – | 33 | – | 35.2 | > 100 | > 100 | 58.7 | 58 | 38.8
14 | NC(C(F)(F)F)(C(F)(F)F)P(=O)(c1ccccc1)c1ccccc1 | – | > 100 | > 100 | > 100 | > 100 | > 100 | > 100 | – | > 100 | > 100 | > 100 | > 100 | > 100 | > 100
15 | CC1=NN2C(=O)CC(=O)N=C2S1 | – | > 100 | > 100 | – | > 100 | > 100 | > 100 | > 100 | > 100 | > 100 | > 100 | > 100 | – | > 100
16 | CC1(C)C=C(/C=N/Nc2ccc(Br)cc2)C(C#N)=C(O)C1(C#N)C#N | – | 95.4 | > 100 | > 100 | > 100 | 88.1 | > 100 | > 100 | > 100 | > 100 | – | – | 86 | > 100
17 | CCOC(=O)c1nnsc1NC(=O)Nc1ccc(Cl)cc1 | – | – | > 100 | > 100 | 70.5 | – | > 100 | 50.1 | > 100 | > 100 | > 100 | > 100 | > 100 | > 100
18 | COc1cc(C)cc2c1C(=O)C(Br)=CC2=O | 34.5 | 3.18 | 3.92 | 35 | 18.6 | – | 39.4 | 3.19 | 11.7 | 36.6 | 29.4 | 37.4 | 11.3 | 71.5
19 | O=C1C(Cl)C(c2ccc(Cl)cc2)N1n1cnc2ccccc2c1=O (stereo not drawn) | – | > 100 | > 100 | > 100 | > 100 | > 100 | > 100 | > 100 | > 100 | > 100 | > 100 | > 100 | > 100 | –

Row | Structure (SMILES) | TGI (A498 renal) [µM] | TGI (CAKI-1 renal) [µM] | TGI (CCRF-CEM leukemia) [µM] | TGI (HCC-2998 colon) [µM] | TGI (HCT-116 colon) [µM] | TGI (HL-60(TB) leukemia) [µM] | TGI (NCI-H23 lung) [µM] | TGI (NCI-H522 lung) [µM] | TGI (OVCAR-3 ovarian) [µM] | TGI (OVCAR-5 ovarian) [µM] | TGI (SK-MEL-2 melanoma) [µM] | TGI (U251 CNS) [µM] | TGI (UO-31 renal) [µM] | TGI (HS 578T breast) [µM]
20 | CC1(C)C=[N+]([O-])C(C)(C)N1 | – | > 100 | > 100 | > 100 | > 100 | > 100 | > 100 | – | > 100 | > 100 | > 100 | > 100 | > 100 | > 100
21 | CO/C(=N\N=C\c1ccc(OC)cc1OC)c1ccncc1 | > 10 | – | > 10 | > 10 | > 10 | > 10 | > 10 | – | – | > 10 | > 10 | > 10 | > 10 | –
22 | C[C@H]1C(OCCOC2O[C@@H]3O[C@@]4(C)CC[C@H]5[C@H](C)CCC([C@H]2C)[C@@]35O4)O[C@@H]2O[C@@]3(C)CC[C@H]4[C@H](C)CCC1[C@@]24O3 (stereo partly drawn) | > 100 | > 100 | 82.5 | 43.7 | 78.6 | 74.9 | > 100 | – | > 100 | > 100 | 42.3 | > 100 | – | –
23 | COc1cccc(-c2cccc(SC)n2)n1 | – | > 100 | 41.5 | 75.5 | > 100 | 31 | > 100 | – | 61.1 | > 100 | > 100 | > 100 | > 100 | –
24 | CO[C@@](c1ccccc1)(c1nc(C#N)c(N)o1)C(F)(F)F | > 100 | > 100 | 74.7 | > 100 | > 100 | – | > 100 | 85.9 | > 100 | – | > 100 | > 100 | > 100 | –
25 | CC(=O)c1c(O)ccc2c1CC(CC=O)O2 (stereo not drawn) | – | > 100 | > 100 | > 100 | 41.4 | > 100 | > 100 | > 100 | > 100 | > 100 | – | > 100 | > 100 | –
26 | NC(=O)C12C3C4C1C1C2C3C41C(N)=O (stereo not drawn) | > 100 | > 100 | > 100 | > 100 | > 100 | > 100 | > 100 | > 100 | > 100 | > 100 | > 100 | > 100 | > 100 | –
27 | O=C1/C(=C/c2ccc(Cl)cc2)NC(=S)N1CN1CCOCC1 | > 100 | – | > 100 | – | > 100 | – | > 100 | – | > 100 | > 100 | > 100 | > 100 | > 100 | > 100
28 | CCOC(OCC)c1ccc(/C=C/c2cc(OC)c(OC)c(OC)c2)cc1 | 45.4 | 74.3 | 37.3 | – | 30.7 | 30.1 | – | > 100 | 38 | 55.7 | – | 32.2 | 45.7 | –
29 | COc1ccc(/C=C2\N=C(c3ccccc3)N(Nc3nnc(NN4C(=O)/C(=C/c5ccc(OC)cc5)N=C4c4ccccc4)c4ccccc34)C2=O)cc1 | > 100 | – | > 100 | – | > 100 | 61.4 | > 100 | > 100 | – | > 100 | – | > 100 | – | –
30 | COC1=CC(C2c3cc4c(cc3[C@@H](Nc3ccc([N+](=O)[O-])cc3)C3COC(=O)[C@H]23)OCO4)=CC(=O)C1=O (stereo partly drawn) | 6.23 | 25.6 | > 25.3 | 14.5 | 27.5 | – | 4.68 | 13.4 | 54.9 | 41 | 92 | 4.75 | 20.7 | –
31 | COC(=O)[C@H]1C=C[C@@H](C)n2c(=O)c3ccccc3c(=O)n21 | > 100 | > 100 | > 100 | > 100 | > 100 | > 100 | > 100 | > 100 | > 100 | > 100 | > 100 | > 100 | > 100 | –
32 | CC1=Nc2c([nH]c(=S)[nH]c2=O)NC(c2ccc(Cl)c(Cl)c2)C1 (stereo not drawn) | 33.3 | > 100 | > 100 | 32 | 30.1 | > 100 | 40.2 | > 100 | 38.3 | > 100 | > 100 | 31.1 | 89.6 | –
33 | NC1=NC2(O)c3ccccc3C(=O)C2(O)N1 (stereo not drawn) | > 100 | > 100 | > 100 | – | > 100 | > 100 | > 100 | > 100 | > 100 | > 100 | > 100 | > 100 | – | –
34 | NC1=CC(C(=O)c2ccncc2)c2nc3ccccc3nc21 (stereo not drawn) | > 100 | > 100 | > 100 | > 100 | > 100 | – | > 100 | > 100 | > 100 | > 100 | > 100 | > 100 | > 100 | > 100
35 | COc1ccc(-c2onc(-c3c(C)cc(C)cc3C)c2C2=NCCCN2)cc1 | – | 44.8 | > 100 | > 100 | > 100 | 38.6 | > 100 | 35.5 | > 100 | > 100 | 97.7 | 57.9 | > 100 | –
36 | NC12CC3CC(C1)CC(Cl)(C3)C2 | > 100 | – | > 100 | > 100 | > 100 | > 100 | > 100 | > 100 | > 100 | > 100 | > 100 | > 100 | > 100 | –
37 | CN(C)CCCSc1c2ccccc2nc2cc(NCC(=O)Nc3ccccc3-c3ccccc3NC(=O)CNc3ccc4c(SCCCN(C)C)c5ccccc5nc4c3)ccc12 | > 100 | > 100 | 92.7 | > 100 | > 100 | 50.3 | > 100 | > 100 | > 100 | > 100 | > 100 | > 100 | > 100 | –

Reference: PubChem BioAssay (NCI)
